Data as given in ChEMBL document CHEMBL3822372, “The development of peptide ligands that target helix 69 rRNA of bacterial ribosomes” (Bioorg Med Chem, 2016).
Active and inactive are the calls of the source. No cut-off for these calls is given here.

Legend:
[1] = Binding affinity to MS2-tagged 50s rRNA A-site in Escherichia coli BL21(DE3) by single molecule FRET assay
[2] = Binding affinity to pseudouridylated H69 50s rRNA (unknown origin) by ESI-MS analysis; details: for Kd: read-out: Kd(app)
[3] = Binding affinity to uridylated H69 50s rRNA (unknown origin) by ESI-MS analysis; details: for Kd: read-out: Kd(app)
[4] = Selectivity ratio for uridylated H69 50s rRNA (unknown origin) to pseudouridylated H69 50s rRNA (unknown origin)
[5] = Binding affinity to pseudouridylated H69 50s rRNA (unknown origin) at 2:1 peptide:RNA ratio by ESI-MS analysis
[6] = Binding affinity to pseudouridylated H69 50s rRNA (unknown origin) at 1:1 peptide:RNA ratio by ESI-MS analysis
[7] = Binding affinity to uridylated H69 50s rRNA (unknown origin) at 2:1 peptide:RNA ratio by ESI-MS analysis; details: read-out: Kd(app)
[8] = Binding affinity to 5'-biotin labeled uridylated H69 50s rRNA (unknown origin) by ESI-MS analysis
[9] = Binding affinity to 5'-biotin labeled pseudouridylated H69 50s rRNA (unknown origin) at 2:1 peptide:RNA ratio by ESI-MS analysis; details: read-out: Kd(app)
[10] = Binding affinity to pseudouridylated H69 50s rRNA (unknown origin) at 20 uM by ESI-MS analysis
[11] = Binding affinity to 5'-biotin labeled pseudouridylated H69 50s rRNA (unknown origin) by ESI-MS analysis; details: read-out: Kd(app)

Compound | Kd [3] [µM] | Kd [2] [µM] | further results
COc1ccc(C[C@H](N)C(=O)N[C@H]2[C@@H](O)[C@H](n3cnc4c(N(C)C)ncnc43)O[C@@H]2CO)cc1 [PUROMYCIN] | – | – | Kd [1]: 480 µM
H-AQVANHQ-NH2 | 9.9 | – | Kd(app) [2]: inactive
H-NAVANHQ-NH2 | 52.8 | 4.6 | –
H-NQAANHQ-NH2 | – | – | Selectivity ratio [4]: 23; Kd ([5]; read-out: Kd(app)): 5 µM; Activity [6]: Active; Kd [7]: 1 µM
H-NQRANHQ-NH2 | – | – | Kd(app) [8]: inactive; Activity [5]: Active; Activity [6]: Active; Kd [9]: 6 µM
H-NQVAAHQ-NH2 | 14.3 | – | Kd(app) [2]: inactive
H-NQVAHAQ-NH2 | – | – | Activity [10]: inactive
H-NQVAHHQ-NH2 | – | 16 | –
H-NQVANAH-NH2 | – | > 20 | –
H-NQVANAQ-NH2 | – | – | Kd(app) [2]: inactive; Kd(app) [3]: inactive
H-NQVANHA-NH2 | 47.5 | 13.4 | –
H-NQVANHH-NH2 | – | > 20 | –
H-NQVANHQ-NH2 | 22.9 | 4.6 | Kd [11]: 3.1 µM
H-NQVANHR-NH2 | 20.5 | – | Kd [11]: 31.8 µM
H-NQVANRQ-NH2 | 14.4 | 4.5 | –
H-NQVARHQ-NH2 | 16.5 | – | Kd(app) [2]: inactive
H-NQVRNHQ-NH2 | 21.7 | > 20 | –
H-NRVANHQ-NH2 | 35.5 | > 40 | –
H-RQVANHQ-NH2 | 10 | 2.1 | –
